Reference: patent US12083094B2, “Cannabinoid composition and methods of treatment using the same” (CANNPAL ANIMAL THERAPEUTICS LIMITED, priority 2018, dated 2024)

Assay: Blood sampling for THC and CBD plasma concentration after single oral dosing
Conditions: oral
Description: Two compositions, IVP1 and IVP2, were administered in varying amounts in the study.
Dosage volumes were calculated prior to Day 0, to provide the target dosage in mg/kg bodyweight based on actual dog bodyweights and IVP active ingredient composition based on the Certificates of Analysis.
Blood samples of approximately 5 mL were collected at each drug concentration sampling time-point from each animal using 22-gauge needles and 5 mL syringes.
The data points from Table 4 and Table 5 were also plotted and these graphs are set out in FIGS. 1-16.

[1] = dog, plasma, CBD concentration in blood plasma, individual dogs 1-4, 0.12 mg/kg CBD + 0.24 mg/kg THC oral once
[2] = dog, plasma, CBD concentration in blood plasma, individual dogs 5-8, 0.24 mg/kg CBD + 0.12 mg/kg THC oral once
[3] = dog, plasma, CBD concentration in blood plasma, mean of dogs 1-4, 0.12 mg/kg CBD + 0.24 mg/kg THC oral once
[4] = dog, plasma, CBD concentration in blood plasma, mean of dogs 5-8, 0.24 mg/kg CBD + 0.12 mg/kg THC oral once

For `C=C(C)[C@@H]1CCC(C)=C[C@H]1c1c(O)cc(CCCCC)cc1O` [CBD, Cannabidiol], the “AUC of CBD after 0.12 mg/kg THC/0.24 mg/kg CBD relative to AUC of CBD after 0.24 mg/kg THC/0.12 mg/kg CBD” value (canine) was “more than twice”, the concentration at 0 h [1] was 0 ng/mL and the concentration at 1.5 h [1] was 7.5 ng/mL. It also gave a concentration at 2 h [1] of 6.27 ng/mL, a concentration at 32 h [1] of 0 ng/mL and a concentration at 0 h [2] of 0 ng/mL. For the same compound, the concentration at 2 h [2] was 23.7 ng/mL, the concentration at 3 h [2] was 9.21 ng/mL and the concentration at 4 h [2] was 5.28 ng/mL. The concentration at 12 h [2] was 0.88 ng/mL, the concentration at 16 h [2] was 0.55 ng/mL and the concentration at 24 h [2] was 0.38 ng/mL. For the same compound, the concentration at 32 h [2] was 0.28 ng/mL, the concentration at 72 h (dog, plasma, CBD concentration in blood plasma, individual dogs 5-8, 0.24 mg/kg CBD + 0.12 mg/kg THC oral once, 72 h) was 0 ng/mL and the concentration at 0 h [3] was 0 ng/mL. It also gave a concentration at 0.67 h [3] of 12.3 ng/mL, a concentration at 1 h [3] of 11.2 ng/mL and a concentration at 1.5 h [3] of 8.6 ng/mL. For the same compound, the concentration at 2 h [3] was 6.89 ng/mL, the concentration at 3 h [3] was 4.31 ng/mL and the concentration at 4 h [3] was 2.9 ng/mL. For the same compound, the concentration at 6 h [3] was 2.02 ng/mL, the concentration at 8 h [3] was 1.3 ng/mL and the concentration at 12 h [3] was 0.41 ng/mL. It also gave a concentration at 16 h [3] of 0.16 ng/mL, a concentration at 24 h [3] of 0.11 ng/mL and a concentration at 32 h [3] of 0 ng/mL. The concentration at 0 h [4] was 0 ng/mL, the concentration at 0.67 h [4] was 30.1 ng/mL and the concentration at 1 h [4] was 35.8 ng/mL. For the same compound, the concentration at 1.5 h [4] was 26.9 ng/mL, the concentration at 2 h [4] was 17.9 ng/mL and the concentration at 3 h [4] was 7.5 ng/mL. For the same compound, the concentration at 4 h [4] was 4.53 ng/mL, the concentration at 6 h [4] was 3.31 ng/mL and the concentration at 8 h [4] was 2.79 ng/mL. For the same compound, the concentration at 12 h [4] was 0.77 ng/mL, the concentration at 16 h [4] was 0.54 ng/mL and the concentration at 24 h [4] was 0.35 ng/mL.
